Data from patent publication US4761414A, “Substituted 1H-pyrimido[1,2-a-]-pyrido[3,4-e]pyrazine 6 oxides” (G. D. Searle & Co., priority 1986, dated 1988).
Values after ≈ are worked out from the molar mass of the structure shown.

Columns and labels:
Type in all cases: cell-based
B. fragilis WS-1 = assay: MIC/MBC against Bacteroides fragilis strain E; settings: for MBC: WS1, 99.9% reduction in viable count; for MIC: WS1, 48 h, 48 hours, 37° C., anaerobic
Protocol: (§1) The screening panel utilized in this Example consisted of 5 strains of Bacteroides fragilis. All assays were carried out in 96-well microtitre plates. If an isolate was obtained from either a culture collection or clinical source, the isolate was immediately inoculated into Wilkens-Chalgren broth (Oxoid) and incubated at 37° C. in an anaerobic chamber in an atmosphere of 85% nitrogen, 10% carbon dioxide, and 5% hydrogen for 48 hours. At the end of this time, the viable count was about 10^12 organisms/ml broth. A 1 ml aliquot of each culture was placed in an ampoule and quick frozen in acetone-dry ice mixture and stored in liquid nitrogen. When an inoculum was utilized in an assay, one of the ampoules was thawed and diluted with fresh broth to yield a suspension having a count of 5×10^5 organisms/ml. A 100 μl aliquot of this suspension was inoculated into each well of the microtitre plate. A 2 mg sample of the test compound was dissolved in 0.2 ml of a suitable solvent such as dimethylsulfoxide, polyethylene glycol 200 or methanol. […] After addition of the test solution the final inoculum level was 10^5 cells/ml. The plates were incubated for 48 hours at 37° C. in the anaerobic chamber. The Minimum Inhibitory Concentration (MIC) was read visually. The MIC is defined as the lowest concentration at which there is no detectable growth. The Minimum Bactericidal Concentration (MBC) was determined by taking 50 μl aliquot from each well and placing it in fresh medium. […] The strains of Bacteroides fragilis utilized in the above procedure are identified by letter in accordance with the following legend: |E B. fragilis WS-1*

B. fragilis NCTC 9343 = assay: MIC/MBC against Bacteroides fragilis strain B; settings: for MBC: NCTC9343, 99.9% reduction in viable count; for MIC: NCTC9343, 48 h, 48 hours, 37° C., anaerobic
Protocol: as §1, with “|B” for “|E”, “NCTC 9343” for “WS-1*”

Peptostreptococcus = assay: MIC vs panel of anaerobes; settings: procedures of Example 40
[1] = system: Bacteroides melanogenicus NCTC 9336; assay: MIC vs panel of anaerobes; settings: NCTC9336, procedures of Example 40
[2] = system: Clostridium perfringens NCTC 523; assay: microbe, parasite or virus in culture; settings: Clostridium perfringens, NCTC523, Clostridium perfringens NCTC 523; procedures of Example 40
[3] = system: Campylobacter fetus ss. jejuni ATCC 29428; assay: MIC vs panel of anaerobes; settings: ATCC29428, procedures of Example 40
Peptococcous magnus = assay: MIC vs panel of anaerobes; settings: procedures of Example 40
[4] = system: B. melanogenicus ATCC 15032; assay: MIC vs panel of anaerobes; settings: procedures of Example 40
P. anaerobius = assay: MIC vs panel of anaerobes; settings: Peptostreptococcus anaerobius, procedures of Example 40

Row | Compound | MBC (B. fragilis WS-1) [µg/mL] | MIC (B. fragilis WS-1) [µg/mL] | MBC (B. fragilis NCTC 9343) [µg/mL] | MIC (B. fragilis NCTC 9343) [µg/mL] | MIC (Peptostreptococcus) [µg/mL] | MIC [1] [µg/mL] | MIC [2] [µg/mL] | MIC [3] [µg/mL] | MIC (Peptococcous magnus) [µg/mL] | MIC [4] [µg/mL] | MIC (P. anaerobius) [µg/mL]
1 | CC1(C)CN=C2C(c3ccc(F)cc3)=[N+]([O-])c3cnccc3N2C1 [Example 33, 2,3-Dihydro-2,2-dimethyl-5-(4-fluorophenyl)-1H-pyrimido[1,2-a]pyrido[3,4-e]pyrazine 6-oxide] | < 0.8 | < 0.8 | < 0.8 | < 0.8 | – | – | – | – | – | – | –
2 | CCCC1(C)CN=C2C(c3ccccc3)=[N+]([O-])c3cccnc3N2C1 (centres unmarked) [Example 28, 2,3-Dihydro-2-methyl-5-phenyl-2-propyl-1H-pyrimido[1,2-a]pyrido[3,2-e]pyrazine 6-oxide] | 1.5 (≈ 4.49 µM) | < 0.8 | < 0.8 | < 0.8 | – | – | – | – | – | – | –
3 | COc1ccc(C2=[N+]([O-])c3cccnc3N3CC(C)(C)CN=C23)cc1OC [Example 22, 2,3-Dihydro-5-(3,4-dimethoxyphenyl)-2,2-dimethyl-1H-pyrimido[1,2-a]pyrido[3,2-e]pyrazine 6-oxide] | < 0.8 | < 0.8 | < 0.8 | < 0.8 | 100 (≈ 273 µM) | > 100 | < 0.8 | 50 (≈ 136 µM) | – | – | –
4 | CCC1(CC)CN=C2C(c3ccccc3)=[N+]([O-])c3cnccc3N2C1 [Example 25, 2,3-Dihydro-2,2-diethyl-5-phenyl-1H-pyrimido[1,2-a]pyrido[3,4-e]pyrazine 6-oxide] | < 0.8 | < 0.8 | 1.5 (≈ 4.49 µM) | 1.5 (≈ 4.49 µM) | – | – | 3.1 (≈ 9.27 µM) | 100 (≈ 299 µM) | 100 (≈ 299 µM) | > 100 | 100 (≈ 299 µM)
5 | CC1CN=C2C(c3ccccc3)=[N+]([O-])c3cnccc3N2C1 (centres unmarked) [Example 34, 2,3-Dihydro-2-methyl-5-phenyl-1H-pyrimido[1,2-a]pyrido[3,4-e]pyrazine 6-oxide] | < 0.8 | < 0.8 | < 0.8 | < 0.8 | – | – | – | – | – | – | –
6 | CC1(C)CN=C2C(c3ccc(Cl)cc3)=[N+]([O-])c3cnccc3N2C1 [Example 17, 2,3-Dihydro-5-(4-chlorophenyl)-2,2-dimethyl-1H-pyrimido[1,2-a]pyrido[3,4-e]pyrazine 6-oxide] | < 0.8 | < 0.8 | 1.5 (≈ 4.4 µM) | 1.5 (≈ 4.4 µM) | > 100 | > 100 | < 0.8 | 100 (≈ 293 µM) | – | – | –
7 | CC1(C)CN=C2C(c3ccccc3)=[N+]([O-])c3cnccc3N2C1 [Example 15, 2,3-Dihydro-2,2-dimethyl-5-phenyl-1H-pyrimido[1,2-a]pyrido[3,4-e]pyrazine 6-oxide] | 1.5 (≈ 4.9 µM) | < 0.8 | < 0.8 | < 0.8 | 100 (≈ 326 µM) | 100 (≈ 326 µM) | 1.5 (≈ 4.9 µM) | – | < 0.8 | – | –
8 | CCC1(C)CN=C2C(c3ccccc3)=[N+]([O-])c3cccnc3N2C1 (centres unmarked) [Example 24, 2,3-Dihydro-2-ethyl-2-methyl-5-phenyl-1H-pyrimido[1,2-a]pyrido[3,2-e]pyrazine 6-oxide] | < 0.8 | < 0.8 | < 0.8 | < 0.8 | – | – | 1.5 (≈ 4.68 µM) | 50 (≈ 156 µM) | – | 100 (≈ 312 µM) | 100 (≈ 312 µM)
9 | CC1(C)CN=C2C(c3ccc(Cl)cc3)=[N+]([O-])c3cccnc3N2C1 [Example 18, 2,3-Dihydro-5-(4-chlorophenyl)-2,2-dimethyl-1H-pyrimido[1,2-a]pyrido[3,2-e]pyrazine 6-oxide] | < 0.8 | < 0.8 | < 0.8 | < 0.8 | 25 (≈ 73.4 µM) | 25 (≈ 73.4 µM) | < 0.8 | – | < 0.8 | – | –
10 | Cc1ccc(C2=[N+]([O-])c3cnccc3N3CC(C)(C)CN=C23)cc1 [Example 19, 2,3-Dihydro-2,2-dimethyl-5-(4-methylphenyl)-1H-pyrimido[1,2-a]pyrido[3,4-e]pyrazine 6-oxide] | 1.5 (≈ 4.68 µM) | 1.5 (≈ 4.68 µM) | 1.5 (≈ 4.68 µM) | < 0.8 | – | – | 1.5 (≈ 4.68 µM) | – | < 0.8 | – | –
11 | CC1(C)CN=C2C(c3ccc(F)cc3)=[N+]([O-])c3cccnc3N2C1 [Example 31, 2,3-Dihydro-2,2-dimethyl-5-(4-fluorophenyl)-1H-pyrimido[1,2-a]pyrido[3,2-e]pyrazine 6-oxide] | < 0.8 | < 0.8 | < 0.8 | < 0.8 | – | – | 3.1 (≈ 9.56 µM) | 100 (≈ 308 µM) | – | > 100 | 100 (≈ 308 µM)
12 | [O-][N+]1=C(c2ccccc2)C2=NCC3(CCCCC3)CN2c2ncccc21 [Example 29, Spiro[cyclohexane-1,2'-[2,3]-dihydro-[5]-phenyl-[1H]pyrimido[1,2-a]pyrido[3,2-e]pyrazine [6]-oxide]] | < 0.8 | < 0.8 | < 0.8 | < 0.8 | – | – | 1.5 (≈ 4.33 µM) | 50 (≈ 144 µM) | < 0.8 | 100 (≈ 289 µM) | < 0.8
13 | COc1ccc(C2=[N+]([O-])c3cnccc3N3CC(C)(C)CN=C23)cc1OC [Example 21] | < 0.8 | < 0.8 | 1.5 (≈ 4.09 µM) | 1.5 (≈ 4.09 µM) | – | – | – | – | – | – | –
14 | [O-][N+]1=C(c2ccccc2)C2=NCC3(CCCCC3)CN2c2ccncc21 [Example 30, Spiro[cyclohexane-1,2'-[2,3]-dihydro-[5]-phenyl-[1H]pyrimido[1,2-a]pyrido[3,4-e]pyrazine [6]-oxide]] | < 0.8 | < 0.8 | 1.5 (≈ 4.33 µM) | < 0.8 | – | – | 6.2 (≈ 17.9 µM) | 100 (≈ 289 µM) | – | > 100 | 100 (≈ 289 µM)
15 | CCC1(C)CN=C2C(c3ccccc3)=[N+]([O-])c3cnccc3N2C1 (centres unmarked) [Example 23, 2,3-Dihydro-2-ethyl-2-methyl-5-phenyl-1H-pyrimido[1,2-a]pyrido[3,4-e]pyrazine 6-oxide] | 3.1 (≈ 9.68 µM) | 1.5 (≈ 4.68 µM) | < 0.8 | < 0.8 | – | – | 1.5 (≈ 4.68 µM) | 100 (≈ 312 µM) | – | > 100 | 100 (≈ 312 µM)
16 | CCCC1(C)CN=C2C(c3ccccc3)=[N+]([O-])c3cnccc3N2C1 (centres unmarked) [Example 27, 2,3-Dihydro-2-methyl-5-phenyl-2-propyl-1H-pyrimido[1,2-a]pyrido[3,4-e]pyrazine 6-oxide] | 3.1 (≈ 9.27 µM) | 1.5 (≈ 4.49 µM) | < 0.8 | < 0.8 | – | – | – | – | – | – | –
17 | CC1(C)CN=C2C(c3ccccc3)=[N+]([O-])c3cccnc3N2C1 [Example 16, 2,3-Dihydro-2,2-dimethyl-5-phenyl-1H-pyrimido[1,2-a]pyrido[3,2-e]pyrazine 6-oxide] | 1.5 (≈ 4.9 µM) | < 0.8 | 1.5 (≈ 4.9 µM) | 1.5 (≈ 4.9 µM) | 25 (≈ 81.6 µM) | 25 (≈ 81.6 µM) | < 0.8 | – | < 0.8 | – | –
18 | CCC1(CC)CN=C2C(c3ccccc3)=[N+]([O-])c3cccnc3N2C1 [Example 26, 2,3-Dihydro-2,2-diethyl-5-phenyl-1H-pyrimido[1,2-a]pyrido[3,2-e]pyrazine 6-oxide] | < 0.8 | < 0.8 | 1.5 (≈ 4.49 µM) | 1.5 (≈ 4.49 µM) | – | – | 1.5 (≈ 4.49 µM) | 50 (≈ 150 µM) | 12.5 (≈ 37.4 µM) | 100 (≈ 299 µM) | 50 (≈ 150 µM)
19 | CC1CN=C2C(c3ccccc3)=[N+]([O-])c3cccnc3N2C1 (centres unmarked) [Example 32, 2,3-Dihydro-2-methyl-5-phenyl-1H-pyrimido[1,2-a]pyrido[3,2-e]pyrazine 6-oxide] | < 0.8 | < 0.8 | 1.5 (≈ 5.13 µM) | 1.5 (≈ 5.13 µM) | – | – | < 0.8 | – | < 0.8 | – | –
